Publication PMC7407272, “Induction of Lysosome Membrane Permeabilization as a Therapeutic Strategy to Target Pancreatic Cancer Stem Cells” (Cancers, 2020)

Key:
Pharmacokinetic study = assay type: in vivo; conditions: BALB/c mice
Procedure: Female BABL/c mice, 10 weeks old were used (n = 3 per time point). Compound 2 was formulated in 0.9% NaCl solution for both oral and intravenous (i.v.) injections. Plasma samples were collected following a single i.v. or oral administration of 8 mg/kg at 0.08, 0.16, 0.25, 0.5, 1, 4, 8 and 24 h. The extraction of Cpd 2 from plasma was achieved by solid phase extraction followed by high performance liquid chromatography/tandem mass spectrometry (Agilent 1100, Applied Biosystems API2000) analysis. The amount of inhibitor and the internal standard in each mouse plasma sample were quantified based on calibration curves generated using standards of known concentrations of compound. This assay method was sufficiently accurate for the quantification of Cpd 2 with a limit of detection (LOD) and a low limit of quantification (LLOQ) of 5 ng/mL. Pharmacokinetic parameters were estimated using WinNonlin Version 5.2 software (Pharsight Corp., Mountain View, CA, USA), by fitting both the experimental i.v and oral data to a bicompartimental model.

AAK1 = molecular target: T1, AAK1 (Homo sapiens, UniProt Q2M2I8); experiment: KINOMEscan; assay type: binding; conditions: read-out: % Ctrl
T1 construct: purchased DiscoveRx KINOMEscan

PDGFRA = molecular target: T2, PDGFRA (Homo sapiens, UniProt P16234); experiment: KINOMEscan; assay type: binding; conditions: read-out: % Ctrl
T2 construct: purchased DiscoveRx KINOMEscan
T2 sequence (P16234 24-1089): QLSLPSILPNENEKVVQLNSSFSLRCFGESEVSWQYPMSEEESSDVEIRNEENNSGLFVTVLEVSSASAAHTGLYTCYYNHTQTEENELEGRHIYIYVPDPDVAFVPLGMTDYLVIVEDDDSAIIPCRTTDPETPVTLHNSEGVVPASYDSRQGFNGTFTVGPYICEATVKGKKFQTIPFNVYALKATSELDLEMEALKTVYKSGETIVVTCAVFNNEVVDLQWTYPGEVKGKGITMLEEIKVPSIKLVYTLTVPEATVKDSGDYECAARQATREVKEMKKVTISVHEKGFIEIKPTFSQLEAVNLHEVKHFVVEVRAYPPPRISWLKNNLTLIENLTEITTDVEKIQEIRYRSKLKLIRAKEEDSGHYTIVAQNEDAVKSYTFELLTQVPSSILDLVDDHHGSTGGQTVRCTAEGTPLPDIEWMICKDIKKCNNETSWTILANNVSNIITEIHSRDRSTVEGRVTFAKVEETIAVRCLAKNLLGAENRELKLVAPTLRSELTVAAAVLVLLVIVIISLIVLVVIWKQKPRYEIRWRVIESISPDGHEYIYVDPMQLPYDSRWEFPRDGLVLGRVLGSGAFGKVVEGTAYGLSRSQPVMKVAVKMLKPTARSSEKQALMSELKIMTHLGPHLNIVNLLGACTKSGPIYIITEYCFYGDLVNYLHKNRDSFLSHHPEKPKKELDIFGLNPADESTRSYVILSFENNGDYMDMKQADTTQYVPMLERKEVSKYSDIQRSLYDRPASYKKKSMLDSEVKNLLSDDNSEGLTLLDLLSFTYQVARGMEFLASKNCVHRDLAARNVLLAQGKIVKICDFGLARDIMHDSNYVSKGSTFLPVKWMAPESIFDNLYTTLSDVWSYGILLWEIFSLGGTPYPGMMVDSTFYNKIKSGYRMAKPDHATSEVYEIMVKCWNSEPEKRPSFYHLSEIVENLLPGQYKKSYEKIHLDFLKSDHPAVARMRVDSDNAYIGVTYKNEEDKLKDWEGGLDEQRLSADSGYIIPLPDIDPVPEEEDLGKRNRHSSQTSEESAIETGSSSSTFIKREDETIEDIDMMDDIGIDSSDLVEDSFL

FLT1 = molecular target: T3, FLT1 (Homo sapiens, UniProt P17948); experiment: KINOMEscan; assay type: binding; conditions: read-out: % Ctrl
T3 construct: purchased DiscoveRx KINOMEscan

ABL1(T315I)-nonP = molecular target: T4, ABL1(T315I)-nonP (Homo sapiens, UniProt P00519, T315I); experiment: KINOMEscan; assay type: binding; conditions: read-out: % Ctrl
T4 construct: purchased DiscoveRx KINOMEscan

ACVR1 = molecular target: T5, ACVR1 (Homo sapiens, UniProt Q04771); experiment: KINOMEscan; assay type: binding; conditions: read-out: % Ctrl
T5 construct: purchased DiscoveRx KINOMEscan

PIK3CA(H1047L) = molecular target: T6, PIK3CA(H1047L) (Homo sapiens, UniProt P42336, H1047L); experiment: KINOMEscan; assay type: binding; conditions: read-out: % Ctrl
T6 construct: purchased DiscoveRx KINOMEscan

FRK = molecular target: T7, FRK (Homo sapiens, UniProt P42685); experiment: KINOMEscan; assay type: binding; conditions: read-out: % Ctrl
T7 construct: purchased DiscoveRx KINOMEscan

PIK3CB = molecular target: T8, PIK3CB (Homo sapiens, UniProt P42338); experiment: KINOMEscan; assay type: binding; conditions: read-out: % Ctrl
T8 construct: purchased DiscoveRx KINOMEscan

ALK(C1156Y) = molecular target: T9, ALK(C1156Y) (Homo sapiens, UniProt Q9UM73, C1156Y); experiment: KINOMEscan; assay type: binding; conditions: read-out: % Ctrl
T9 construct: purchased DiscoveRx KINOMEscan
T9 sequence (Q9UM73 19-1620 C1156Y): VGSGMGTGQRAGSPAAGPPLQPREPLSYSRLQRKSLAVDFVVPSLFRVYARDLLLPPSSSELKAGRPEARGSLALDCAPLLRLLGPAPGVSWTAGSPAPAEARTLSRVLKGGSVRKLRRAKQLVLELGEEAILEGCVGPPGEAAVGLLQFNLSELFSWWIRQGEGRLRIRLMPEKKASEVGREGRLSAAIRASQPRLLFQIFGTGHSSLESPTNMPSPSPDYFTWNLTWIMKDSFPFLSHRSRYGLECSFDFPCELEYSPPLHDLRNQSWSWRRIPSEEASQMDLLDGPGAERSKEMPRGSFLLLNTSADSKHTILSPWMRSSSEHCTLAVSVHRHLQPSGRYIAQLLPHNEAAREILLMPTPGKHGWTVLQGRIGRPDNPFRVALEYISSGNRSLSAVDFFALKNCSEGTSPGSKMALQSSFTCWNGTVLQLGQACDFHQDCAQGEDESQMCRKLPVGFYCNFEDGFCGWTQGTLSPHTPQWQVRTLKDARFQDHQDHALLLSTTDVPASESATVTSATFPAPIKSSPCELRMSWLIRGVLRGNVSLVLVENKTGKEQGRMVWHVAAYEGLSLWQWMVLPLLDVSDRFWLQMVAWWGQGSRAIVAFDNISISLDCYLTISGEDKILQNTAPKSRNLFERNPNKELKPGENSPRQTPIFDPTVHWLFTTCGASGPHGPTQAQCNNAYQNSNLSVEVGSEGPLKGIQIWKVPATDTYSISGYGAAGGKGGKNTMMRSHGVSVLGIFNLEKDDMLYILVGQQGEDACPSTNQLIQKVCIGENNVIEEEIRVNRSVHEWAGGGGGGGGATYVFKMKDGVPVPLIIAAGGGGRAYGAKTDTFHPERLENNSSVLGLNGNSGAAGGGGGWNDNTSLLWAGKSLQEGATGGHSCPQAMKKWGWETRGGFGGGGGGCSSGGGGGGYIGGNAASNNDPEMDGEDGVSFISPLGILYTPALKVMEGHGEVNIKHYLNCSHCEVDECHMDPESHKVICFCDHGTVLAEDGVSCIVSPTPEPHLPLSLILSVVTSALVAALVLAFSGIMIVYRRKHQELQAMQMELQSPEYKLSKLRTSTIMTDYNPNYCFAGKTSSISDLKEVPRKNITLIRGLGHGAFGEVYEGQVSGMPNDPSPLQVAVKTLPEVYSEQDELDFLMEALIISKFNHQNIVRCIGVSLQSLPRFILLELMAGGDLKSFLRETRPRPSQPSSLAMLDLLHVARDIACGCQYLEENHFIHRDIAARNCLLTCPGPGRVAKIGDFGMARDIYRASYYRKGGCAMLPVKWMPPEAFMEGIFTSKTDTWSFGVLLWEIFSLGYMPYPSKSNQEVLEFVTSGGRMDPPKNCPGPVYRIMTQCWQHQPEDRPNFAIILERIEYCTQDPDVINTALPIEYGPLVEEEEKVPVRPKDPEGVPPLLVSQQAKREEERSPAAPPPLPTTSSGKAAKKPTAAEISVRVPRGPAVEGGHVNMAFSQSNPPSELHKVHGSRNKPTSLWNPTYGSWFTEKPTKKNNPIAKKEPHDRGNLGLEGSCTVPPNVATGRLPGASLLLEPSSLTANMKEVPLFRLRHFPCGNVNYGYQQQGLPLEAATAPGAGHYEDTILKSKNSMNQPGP

ALK(L1196M) = molecular target: T10, ALK(L1196M) (Homo sapiens, UniProt Q9UM73, L1196M); experiment: KINOMEscan; assay type: binding; conditions: read-out: % Ctrl
T10 construct: purchased DiscoveRx KINOMEscan
T10 sequence (Q9UM73 19-1620 L1196M): as the sequence (Q9UM73 19-1620 C1156Y) above, with Y1138C, L1178M counted along it

HIPK4 = molecular target: T11, HIPK4 (Homo sapiens, UniProt Q8NE63); experiment: KINOMEscan; assay type: binding; conditions: read-out: % Ctrl
T11 construct: purchased DiscoveRx KINOMEscan

PKN1 = molecular target: T12, PKN1 (Homo sapiens, UniProt Q16512); experiment: KINOMEscan; assay type: binding; conditions: read-out: % Ctrl
T12 construct: purchased DiscoveRx KINOMEscan

BMPR1B = molecular target: T13, BMPR1B (Homo sapiens, UniProt O00238); experiment: KINOMEscan; assay type: binding; conditions: read-out: % Ctrl
T13 construct: purchased DiscoveRx KINOMEscan

BMPR2 = molecular target: T14, BMPR2 (Homo sapiens, UniProt Q13873); experiment: KINOMEscan; assay type: binding; conditions: read-out: % Ctrl
T14 construct: purchased DiscoveRx KINOMEscan

CAMK1 = molecular target: T15, CAMK1 (Homo sapiens, UniProt Q14012); experiment: KINOMEscan; assay type: binding; conditions: read-out: % Ctrl
T15 construct: purchased DiscoveRx KINOMEscan

CAMK1D = molecular target: T16, CAMK1D (Homo sapiens, UniProt Q8IU85); experiment: KINOMEscan; assay type: binding; conditions: read-out: % Ctrl
T16 construct: purchased DiscoveRx KINOMEscan

PYK2 = molecular target: T17, PYK2 (Homo sapiens, UniProt Q14289); experiment: KINOMEscan; assay type: binding; conditions: read-out: % Ctrl
T17 construct: purchased DiscoveRx KINOMEscan

KIT(A829P) = molecular target: T18, KIT(A829P) (Homo sapiens, UniProt P10721, A829P); experiment: KINOMEscan; assay type: binding; conditions: read-out: % Ctrl
T18 construct: purchased DiscoveRx KINOMEscan

RIOK2 = molecular target: T19, RIOK2 (Homo sapiens, UniProt Q9BVS4); experiment: KINOMEscan; assay type: binding; conditions: read-out: % Ctrl
T19 construct: purchased DiscoveRx KINOMEscan

CDK2 = molecular target: T20, CDK2 (Homo sapiens, UniProt P24941); experiment: KINOMEscan; assay type: binding; conditions: read-out: % Ctrl
T20 construct: purchased DiscoveRx KINOMEscan

CDK4 = molecular target: T21, CDK4 (Homo sapiens, UniProt P11802); experiment: KINOMEscan; assay type: binding; conditions: read-out: % Ctrl
T21 construct: purchased DiscoveRx KINOMEscan

MAP3K2 = molecular target: T22, MAP3K2 (Homo sapiens, UniProt Q9Y2U5); experiment: KINOMEscan; assay type: binding; conditions: read-out: % Ctrl
T22 construct: purchased DiscoveRx KINOMEscan

CHEK1 = molecular target: T23, CHEK1 (Homo sapiens, UniProt O14757); experiment: KINOMEscan; assay type: binding; conditions: read-out: % Ctrl
T23 construct: purchased DiscoveRx KINOMEscan

CSF1R-autoi. = molecular target: T24, CSF1R-autoi. (Homo sapiens, UniProt P07333); experiment: KINOMEscan; assay type: binding; conditions: read-out: % Ctrl
T24 construct: purchased DiscoveRx KINOMEscan
T24 sequence (P07333 539-972 limits assumed): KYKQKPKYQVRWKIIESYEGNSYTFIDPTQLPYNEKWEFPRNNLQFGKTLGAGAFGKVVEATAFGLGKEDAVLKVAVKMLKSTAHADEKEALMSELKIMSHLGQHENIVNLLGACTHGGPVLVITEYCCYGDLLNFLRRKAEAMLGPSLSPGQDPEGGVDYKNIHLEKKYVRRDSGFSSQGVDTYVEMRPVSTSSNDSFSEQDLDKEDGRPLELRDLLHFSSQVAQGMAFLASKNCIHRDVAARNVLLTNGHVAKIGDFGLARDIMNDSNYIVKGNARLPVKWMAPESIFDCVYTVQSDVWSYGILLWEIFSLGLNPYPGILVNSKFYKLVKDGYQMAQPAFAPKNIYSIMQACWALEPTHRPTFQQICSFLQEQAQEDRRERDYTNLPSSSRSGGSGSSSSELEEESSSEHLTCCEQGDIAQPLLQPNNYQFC

CSNK1A1 = molecular target: T25, CSNK1A1 (Homo sapiens, UniProt P48729); experiment: KINOMEscan; assay type: binding; conditions: read-out: % Ctrl
T25 construct: purchased DiscoveRx KINOMEscan

CSNK1A1L = molecular target: T26, CSNK1A1L (Homo sapiens, UniProt Q8N752); experiment: KINOMEscan; assay type: binding; conditions: read-out: % Ctrl
T26 construct: purchased DiscoveRx KINOMEscan

CSNK1E = molecular target: T27, CSNK1E (Homo sapiens, UniProt P49674); experiment: KINOMEscan; assay type: binding; conditions: read-out: % Ctrl
T27 construct: purchased DiscoveRx KINOMEscan
T27 sequence (P49674 whole entry): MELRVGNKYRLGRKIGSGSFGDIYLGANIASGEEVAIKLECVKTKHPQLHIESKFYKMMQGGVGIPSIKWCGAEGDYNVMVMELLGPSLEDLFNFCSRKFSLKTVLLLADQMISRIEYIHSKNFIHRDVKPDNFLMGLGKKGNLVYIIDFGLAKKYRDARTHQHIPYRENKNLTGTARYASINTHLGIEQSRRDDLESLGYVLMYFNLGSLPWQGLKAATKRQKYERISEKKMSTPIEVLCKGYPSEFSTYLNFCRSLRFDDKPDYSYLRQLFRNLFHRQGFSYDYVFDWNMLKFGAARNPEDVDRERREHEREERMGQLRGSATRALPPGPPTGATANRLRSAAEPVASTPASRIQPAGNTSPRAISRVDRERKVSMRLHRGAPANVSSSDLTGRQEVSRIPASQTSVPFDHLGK

MEK3 = molecular target: T28, MEK3 (Homo sapiens, UniProt P46734); experiment: KINOMEscan; assay type: binding; conditions: read-out: % Ctrl
T28 construct: purchased DiscoveRx KINOMEscan

STK36 = molecular target: T29, STK36 (Homo sapiens, UniProt Q9NRP7); experiment: KINOMEscan; assay type: binding; conditions: read-out: % Ctrl
T29 construct: purchased DiscoveRx KINOMEscan
T29 sequence (Q9NRP7 whole entry): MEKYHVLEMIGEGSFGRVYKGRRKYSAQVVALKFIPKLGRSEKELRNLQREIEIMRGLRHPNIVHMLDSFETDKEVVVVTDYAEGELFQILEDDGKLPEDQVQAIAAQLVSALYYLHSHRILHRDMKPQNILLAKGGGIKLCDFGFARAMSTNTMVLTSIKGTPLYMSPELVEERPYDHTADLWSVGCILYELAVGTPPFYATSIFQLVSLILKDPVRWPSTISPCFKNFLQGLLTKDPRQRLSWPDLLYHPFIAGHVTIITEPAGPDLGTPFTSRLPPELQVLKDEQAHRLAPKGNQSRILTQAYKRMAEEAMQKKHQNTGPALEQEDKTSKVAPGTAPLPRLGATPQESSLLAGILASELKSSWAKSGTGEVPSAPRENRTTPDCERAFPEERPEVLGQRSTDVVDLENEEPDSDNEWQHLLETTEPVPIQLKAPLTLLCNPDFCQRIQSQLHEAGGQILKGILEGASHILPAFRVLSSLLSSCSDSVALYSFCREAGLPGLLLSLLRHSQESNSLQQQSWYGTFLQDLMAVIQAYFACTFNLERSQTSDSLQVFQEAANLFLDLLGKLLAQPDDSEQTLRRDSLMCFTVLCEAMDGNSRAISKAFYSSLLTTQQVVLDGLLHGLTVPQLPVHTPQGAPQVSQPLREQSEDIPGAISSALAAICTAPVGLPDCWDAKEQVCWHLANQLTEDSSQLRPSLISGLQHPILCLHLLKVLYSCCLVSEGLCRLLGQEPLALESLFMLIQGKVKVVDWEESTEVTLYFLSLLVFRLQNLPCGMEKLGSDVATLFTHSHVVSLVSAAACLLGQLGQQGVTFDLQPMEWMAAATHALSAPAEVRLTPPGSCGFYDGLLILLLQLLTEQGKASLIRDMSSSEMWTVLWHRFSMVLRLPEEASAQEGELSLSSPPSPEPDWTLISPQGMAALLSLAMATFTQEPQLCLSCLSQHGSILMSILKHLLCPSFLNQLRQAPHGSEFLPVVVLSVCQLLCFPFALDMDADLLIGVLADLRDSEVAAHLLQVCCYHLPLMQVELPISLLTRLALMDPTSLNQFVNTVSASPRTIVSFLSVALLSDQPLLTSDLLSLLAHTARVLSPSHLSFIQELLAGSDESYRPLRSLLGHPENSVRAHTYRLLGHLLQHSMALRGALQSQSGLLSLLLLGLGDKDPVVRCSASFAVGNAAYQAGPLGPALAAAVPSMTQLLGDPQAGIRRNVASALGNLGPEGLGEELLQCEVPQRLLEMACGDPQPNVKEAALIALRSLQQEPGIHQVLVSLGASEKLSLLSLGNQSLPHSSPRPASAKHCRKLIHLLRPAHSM

MINK = molecular target: T30, MINK (Homo sapiens, UniProt Q8N4C8); experiment: KINOMEscan; assay type: binding; conditions: read-out: % Ctrl
T30 construct: purchased DiscoveRx KINOMEscan

MST3 = molecular target: T31, MST3 (Homo sapiens, UniProt Q9Y6E0); experiment: KINOMEscan; assay type: binding; conditions: read-out: % Ctrl
T31 construct: purchased DiscoveRx KINOMEscan

EGFR(L858R) = molecular target: T32, EGFR(L858R) (Homo sapiens, UniProt P00533, L858R); experiment: KINOMEscan; assay type: binding; conditions: read-out: % Ctrl
T32 construct: purchased DiscoveRx KINOMEscan

TRPM6 = molecular target: T33, TRPM6 (Homo sapiens, UniProt Q9BX84); experiment: KINOMEscan; assay type: binding; conditions: read-out: % Ctrl
T33 construct: purchased DiscoveRx KINOMEscan

EPHA4 = molecular target: T34, EPHA4 (Homo sapiens, UniProt P54764); experiment: KINOMEscan; assay type: binding; conditions: read-out: % Ctrl
T34 construct: purchased DiscoveRx KINOMEscan

NIK = molecular target: T35, NIK (Homo sapiens, UniProt Q99558); experiment: KINOMEscan; assay type: binding; conditions: read-out: % Ctrl
T35 construct: purchased DiscoveRx KINOMEscan

ERK4 = molecular target: T36, ERK4 (Homo sapiens, UniProt P31152); experiment: KINOMEscan; assay type: binding; conditions: read-out: % Ctrl
T36 construct: purchased DiscoveRx KINOMEscan

YANK3 = molecular target: T37, YANK3 (Homo sapiens, UniProt Q86UX6); experiment: KINOMEscan; assay type: binding; conditions: read-out: % Ctrl
T37 construct: purchased DiscoveRx KINOMEscan

Question: For `CN1CCC(CNc2ccc3ncc(C(=O)Nc4cccc(OC(F)(F)F)c4)n3n2)CC1` [Cpd 2], which levels in plasma (Pharmacokinetic study; after intravenous administration) is on record?
Answer: low levels in plasma

Question: And the clearance (Pharmacokinetic study; intravenous administration)?
Answer: > 100 % hepatic blood flow

Question: What about the remaining binding at 1 µM (AAK1) of the same compound?
Answer: 89%

Question: And the remaining binding at 1 µM (PDGFRA)?
Answer: 81%

Question: What about the remaining binding at 1 µM (FLT1) of the same compound?
Answer: 100%

Question: And the remaining binding at 1 µM (ABL1(T315I)-nonP)?
Answer: 70%

Question: And the remaining binding at 1 µM (ACVR1)?
Answer: 99%

Question: What about the remaining binding at 1 µM (PIK3CA(H1047L)) of the same compound?
Answer: 93%

Question: And the remaining binding at 1 µM (FRK)?
Answer: 100%

Question: What about the remaining binding at 1 µM (PIK3CB) of the same compound?
Answer: 91%

Question: And the remaining binding at 1 µM (ALK(C1156Y))?
Answer: 85%

Question: And the remaining binding at 1 µM (ALK(L1196M))?
Answer: 100%

Question: What about the remaining binding at 1 µM (HIPK4) of the same compound?
Answer: 88%

Question: And the remaining binding at 1 µM (PKN1)?
Answer: 100%

Question: And the remaining binding at 1 µM (BMPR1B)?
Answer: 99%

Question: What about the remaining binding at 1 µM (BMPR2) of the same compound?
Answer: 87%

Question: And the remaining binding at 1 µM (CAMK1)?
Answer: 98%

Question: What about the remaining binding at 1 µM (CAMK1D) of the same compound?
Answer: 94%

Question: What about the remaining binding at 1 µM (PYK2) of the same compound?
Answer: 95%

Question: And the remaining binding at 1 µM (KIT(A829P))?
Answer: 91%

Question: What about the remaining binding at 1 µM (RIOK2) of the same compound?
Answer: 99%

Question: What about the remaining binding at 1 µM (CDK2) of the same compound?
Answer: 100%

Question: And the remaining binding at 1 µM (CDK4)?
Answer: 100%

Question: And the remaining binding at 1 µM (MAP3K2)?
Answer: 92%

Question: What about the remaining binding at 1 µM (CHEK1) of the same compound?
Answer: 86%

Question: What about the remaining binding at 1 µM (CSF1R-autoi.) of the same compound?
Answer: 88%

Question: What about the remaining binding at 1 µM (CSNK1A1) of the same compound?
Answer: 100%

Question: What about the remaining binding at 1 µM (CSNK1A1L) of the same compound?
Answer: 95%

Question: What about the remaining binding at 1 µM (CSNK1E) of the same compound?
Answer: 95%

Question: And the remaining binding at 1 µM (MEK3)?
Answer: 94%

Question: And the remaining binding at 1 µM (STK36)?
Answer: 100%

Question: What about the remaining binding at 1 µM (MINK) of the same compound?
Answer: 94%

Question: And the remaining binding at 1 µM (MST3)?
Answer: 96%

Question: What about the remaining binding at 1 µM (EGFR(L858R)) of the same compound?
Answer: 94%

Question: What about the remaining binding at 1 µM (TRPM6) of the same compound?
Answer: 100%

Question: And the remaining binding at 1 µM (EPHA4)?
Answer: 88%

Question: What about the remaining binding at 1 µM (NIK) of the same compound?
Answer: 100%

Question: What about the remaining binding at 1 µM (ERK4) of the same compound?
Answer: 100%

Question: What about the remaining binding at 1 µM (YANK3) of the same compound?
Answer: 99%
